Calls of active or inactive are those of the source. The calls are words filed in the database; no cut-off is given here.
How the values were obtained:
[1] = target: T1, Uracil nucleotide/cysteinyl leukotriene receptor (Homo sapiens, UniProt Q13304); experiment: Displacement of [3H]PSB-12150 from human GPR17 expressed in CHO-K1 cell membranes at 100 uM after 60 mins by liquid scintillation counting
[2] = target: T1, Uracil nucleotide/cysteinyl leukotriene receptor; experiment: Displacement of [3H]PSB-12150 from human GPR17 expressed in CHO-K1 cell membranes up to 1 uM after 60 mins by liquid scintillation counting
[3] = target: T1, Uracil nucleotide/cysteinyl leukotriene receptor; experiment: biochemical
Description: Displacement of [3H]PSB-12150 from human GPR17 expressed in CHO-K1 cell membranes after 60 mins by heterologous competition binding assay

[4] = target: T1, Uracil nucleotide/cysteinyl leukotriene receptor; experiment: Displacement of [3H]PSB-12150 from human GPR17 expressed in CHO-K1 cell membranes up to 1 mM after 60 mins by liquid scintillation counting
[5] = target: T1, Uracil nucleotide/cysteinyl leukotriene receptor; conditions: CHO-K1, 100 uM
Description: Displacement of [3H]PSB-12150 from human GPR17 expressed in CHO-K1 cell membranes assessed as association half life at 100 uM by liquid scintillation counting

[6] = target: T1, Uracil nucleotide/cysteinyl leukotriene receptor; experiment: Displacement of [3H]PSB-12150 from human GPR17 expressed in CHO-K1 cell membranes after 60 mins by homologous competition binding assay in presence of pranlukast
[7] = target: T1, Uracil nucleotide/cysteinyl leukotriene receptor; conditions: CHO-K1, 100 uM; remark: listed apart in the source
Description: Displacement of [3H]PSB-12150 from human GPR17 expressed in CHO-K1 cell membranes assessed as dissociation half life at 100 uM treated after 1 hr incubation with radioligand by liquid scintillation counting

[8] = target: T1, Uracil nucleotide/cysteinyl leukotriene receptor; experiment: Displacement of [3H]PSB-12150 from human GPR17 expressed in CHO-K1 cell membranes after 60 mins by competition binding assay
[9] = target: T1, Uracil nucleotide/cysteinyl leukotriene receptor; experiment: Binding affinity to human GPR17 expressed in CHO-K1 cell membranes after 60 mins by saturation curve study

T1 sequence (Q13304 whole entry): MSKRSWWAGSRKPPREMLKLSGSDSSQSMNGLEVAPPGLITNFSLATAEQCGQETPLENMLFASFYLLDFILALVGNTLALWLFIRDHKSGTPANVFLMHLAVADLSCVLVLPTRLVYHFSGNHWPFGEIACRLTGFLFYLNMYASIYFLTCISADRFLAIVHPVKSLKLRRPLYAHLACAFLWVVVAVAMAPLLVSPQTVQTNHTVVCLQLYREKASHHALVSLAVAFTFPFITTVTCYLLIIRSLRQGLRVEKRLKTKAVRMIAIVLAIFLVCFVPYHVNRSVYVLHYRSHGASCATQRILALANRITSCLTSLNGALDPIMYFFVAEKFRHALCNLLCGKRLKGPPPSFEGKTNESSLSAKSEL

## Nc1nc(=O)c2ncn([C@@H]3O[C@H](COP(=O)(O)OP(=O)(O)OP(=O)(O)O)[C@@H](O)C3O)c2[nH]1 (single isomer, unassigned)
[1]
  Activity: Active

## CCCCC/C=C\C\C=C/C=C/C=C/[C@@H](SCC(NC(=O)CC[C@H](N)C(=O)O)C(=O)NCC(=O)O)[C@@H](O)CCCC(=O)O (single isomer, unassigned)
[2]
  Activity: inactive

## O=C(Nc1cccc2c(=O)cc(-c3nnn[nH]3)oc12)c1ccc(OCCCCc2ccccc2)cc1 [PRANLUKAST]
[3]
  Ki: 4.06 µM

## Nc1ncnc2c1ncn2[C@@H]1O[C@H](COP(=O)(O)OP(=O)(O)OP(=O)(O)O)[C@@H](O)[C@H]1O
[4]
  Activity: inactive

## O=c1ccn([C@@H]2O[C@H](COP(=O)(O)OP(=O)(O)OP(=O)(O)O)[C@@H](O)[C@H]2O)c(=O)[nH]1
[4]
  Activity: inactive

## O=C(/C=C/c1c(C(=O)O)[nH]c2cc(Cl)cc(Cl)c12)Nc1ccccc1 [GAVESTINEL]
[3]
  Ki: 1.63 µM

## O=c1ccn([C@@H]2O[C@H](COP(=O)(O)OP(=O)(O)O)[C@@H](O)[C@H]2O)c(=O)[nH]1
[4]
  Activity: inactive

## CC(C)(O)c1ccccc1CC[C@@H](SCC1(CC(=O)O)CC1)c1cccc(/C=C/c2ccc3ccc(Cl)cc3n2)c1 [MONTELUKAST]
[3]
  Ki: 6.54 µM

## O=C(O)CCc1c(C(=O)O)[nH]c2cc(Cl)cc(Cl)c12
[5]
  T1/2: 1.8 min
[6]
  Ki: 1.21 µM
[7]
  T1/2: 0.3 min
[8]
  Ki: 2.32 µM

## [3H]C([3H])(C(=O)O)C([3H])([3H])c1c(C(=O)O)[nH]c2cc(Cl)cc(Cl)c12
[9]
  Kd: 1.26 µM

## Nc1ncnc2c1ncn2[C@@H]1O[C@H](COP(=O)(O)OP(=O)(O)O)[C@@H](O)[C@H]1O
[4]
  Activity: inactive

Source: ChEMBL document CHEMBL3259593, “Development of [(3)H]2-Carboxy-4,6-dichloro-1H-indole-3-propionic Acid ([(3)H]PSB-12150): A Useful Tool for Studying GPR17” (ACS Med Chem Lett, 2014)
